Literature values, collected in patent US7645767B2, “Pharmaceutical compositions for treating chronic pain and pain associated with neuropathy” (Trinity Laboratories, Inc., priority 2006, dated 2010).

Key:
[1] = system: complex regional pain syndrome and neuropathic pain
[2] = for accumulation during multiple dose treatment: multiple dose treatment with tramadol
μ-opiate receptors = μ-opiate receptors (Homo sapiens, UniProt P35372)
Sequence of μ-opiate receptors (P35372 whole entry): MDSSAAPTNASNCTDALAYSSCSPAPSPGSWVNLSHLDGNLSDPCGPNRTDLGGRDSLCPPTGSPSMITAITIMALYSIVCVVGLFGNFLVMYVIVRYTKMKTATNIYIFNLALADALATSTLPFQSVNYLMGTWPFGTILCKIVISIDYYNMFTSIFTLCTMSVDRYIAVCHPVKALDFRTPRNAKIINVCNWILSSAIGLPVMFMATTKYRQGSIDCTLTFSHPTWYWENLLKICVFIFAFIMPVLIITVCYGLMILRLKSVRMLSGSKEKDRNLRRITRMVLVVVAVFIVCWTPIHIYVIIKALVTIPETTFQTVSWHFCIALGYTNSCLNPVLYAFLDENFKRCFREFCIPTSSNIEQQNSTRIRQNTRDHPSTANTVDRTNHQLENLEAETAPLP

Row | SMILES | absorption in the jejunum (oral dosing of rats, after 3 hours) [%] | time to distribution to brain, spinal cord, liver and blood (rats, i.v. administration) [min] | duration of sustained analgesia ([1]; capsaicin concentration 5-10% under regional anesthesia) [weeks] | dropout rates due to burning pain at the site of application ([1]; topical capsaicin trials) [%] | time to peak serum concentrations ([2]; after oral administration) [h] | accumulation during multiple dose treatment [2] | affinity for μ-opiate receptors, fold less than codeine (μ-opiate receptors; relative to codeine) [fold] | affinity for μ-opiate receptors, fold less than d-propoxyphene (μ-opiate receptors; relative to d-propoxyphene) [fold] | affinity for μ-opiate receptors compared with dextromethorphan (μ-opiate receptors; relative to dextromethorphan) | affinity for μ-opiate receptors, fold less than morphine (μ-opiate receptors; relative to morphine) | duration of the analgesic effect (analgesic effect; after a single oral dose of tramadol 100 mg) | half-life ([2]; after a single oral dose of 100 mg tramadol, 2-compartmental elimination) [h] | analgesic potency compared with parent drug (analgesic effect; relative to tramadol)
1 | COc1cc(CNC(=O)CCCCC=CC(C)C)ccc1O [capsaicin, 8-methyl-N-vanillyl-6-nonenamide] | 85 | ≤ 20 | 1 to 8 | 33 to 67 |  |  |  |  |  |  |  |  | 
2 | COc1cccc(C2(O)CCCCC2CN(C)C)c1 (racemic) [tramadol, (+/−)-trans (RR,SS)-2-[(dimethylamino)methyl]-1-(3-methoxyphenyl)cyclohexanol] |  |  |  |  | ≤ 2 | approximately 2 fold | 10 | 100 | equivalent | 6,000 fold | about 6 hours |  | 
3 | CN(C)C[C@H]1CCCC[C@]1(O)c1cccc(O)c1 [O-desmethyltramadol] |  |  |  |  |  | approximately 2 fold |  |  |  |  |  | 9 | at least twice
